Assay results as given in US12655116B2, “Substituted isophthalic acid diamides” (Bayer Aktiengesellschaft, priority 2020, dated 2026).

How the values were obtained:
[1] = test system: MATIN; assay: Pre-emergence herbicidal action against MATIN; type: in vivo, Matricaria inodora; conditions: Tripleurospermum inodorum, 504 h
Outline: (§1)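 Pre-emergence soil-surface spray of formulated compound (WP or EC; 600 to 800 l/ha; 0.2% wetting agent) over seeds sown in sandy loam. After 3 weeks under greenhouse conditions, damage is estimated visually in percent against untreated plants.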

[2] = test system: AMARE; assay: Pre-emergence herbicidal action against AMARE; type: in vivo, Amaranthus retroflexus; conditions: Amaranthus retroflexus, 504 h, scored visually after 3 weeks vs untreated controls, 100% = plants have died, 0% = like control plants
Outline: as §1

[3] = test system: VERPE; assay: Post-emergence herbicidal action against VERPE; type: in vivo, Veronica persica; conditions: Veronica persica, 504 h, 20 g/ha
Outline: (§2)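 Spray, one-leaf stage: WP or EC compound in water, 600–800 l/ha, 0.2% wetting agent. Plants held about 3 weeks in the greenhouse, then visually rated in percent of kill compared with untreated controls.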

[4] = test system: ABUTH; assay: Post-emergence herbicidal action against ABUTH; type: in vivo, Abutilon theophrasti; conditions: Abutilon theophrasti, 504 h, visual assessment about 3 weeks after treatment vs untreated controls
Outline: as §2

[5] = test system: AVEFA; assay: Pre-emergence herbicidal action against AVEFA; type: in vivo, Avena fatua; conditions: Avena fatua, 504 h, pre-emergence
Outline: as §1

[6] = test system: ECHCG; assay: Pre-emergence herbicidal action against ECHCG; type: in vivo, Echinochloa crus-galli; conditions: Echinochloa crus-galli, 504 h
Outline: as §1

[7] = test system: DIGSA; assay: Pre-emergence herbicidal action against DIGSA; type: in vivo, Digitaria sanguinalis; conditions: Digitaria sanguinalis, 504 h, dosage 80 g/ha
Outline: as §1

[8] = test system: VERPE; assay: Pre-emergence herbicidal action against VERPE; type: in vivo, Veronica persica; conditions: Veronica persica, 504 h, dosage 80 g/ha
Outline: as §1

[9] = test system: VIOTR; assay: Post-emergence herbicidal action against VIOTR; type: in vivo, Viola tricolor; conditions: Viola tricolor, 504 h
Outline: as §2

[10] = test system: DIGSA; assay: Post-emergence herbicidal action against DIGSA; type: in vivo, Digitaria sanguinalis; conditions: Digitaria sanguinalis, 504 h
Outline: as §2

[11] = test system: AMARE; assay: Post-emergence herbicidal action against AMARE; type: in vivo, Amaranthus retroflexus; conditions: Amaranthus retroflexus, 504 h, 20 g/ha, visual assessment about 3 weeks after treatment, 100% = plants have died, 0% = like control plants
Outline: as §2

[12] = test system: ECHCG; assay: Post-emergence herbicidal action against ECHCG; type: in vivo, Echinochloa crus-galli; conditions: Echinochloa crus-galli, 504 h
Outline: as §2

[13] = test system: AVEFA; assay: Post-emergence herbicidal action against AVEFA; type: in vivo, Avena fatua; conditions: Avena fatua, 504 h, 20 g/ha, visual assessment about 3 weeks after treatment, 100% = plants have died, 0% = like control plants
Outline: as §2

[14] = test system: ALOMY; assay: Post-emergence herbicidal action against ALOMY; type: in vivo, Alopecurus myosuroides; conditions: Alopecurus myosuroides, 504 h, visual assessment about 3 weeks after treatment vs untreated controls
Outline: as §2

[15] = test system: ALOMY; assay: Pre-emergence herbicidal action against ALOMY; type: in vivo, Alopecurus myosuroides; conditions: Alopecurus myosuroides, 504 h; 80 g/ha, pre-emergence, scored visually after 3 weeks vs untreated controls (100% = plants have died, 0% = like control plants)
Outline: as §1

[16] = test system: SETVI; assay: Pre-emergence herbicidal action against SETVI; type: in vivo, Setaria viridis; conditions: Setaria viridis, 504 h
Outline: as §1

[17] = test system: MATIN; assay: Post-emergence herbicidal action against MATIN; type: in vivo, Matricaria inodora; conditions: Tripleurospermum inodorum, 504 h, dosage 20 g/ha
Outline: as §2

[18] = test system: VIOTR; assay: Pre-emergence herbicidal action against VIOTR; type: in vivo, Viola tricolor; conditions: Viola tricolor, 504 h
Outline: as §1

[19] = test system: POLCO; assay: Pre-emergence herbicidal action against POLCO; type: in vivo, Polygonum convolvulus; conditions: Fallopia convolvulus, 504 h, dosage 80 g/ha
Outline: as §1

[20] = test system: ABUTH; assay: Pre-emergence herbicidal action against ABUTH; type: in vivo, Abutilon theophrasti; conditions: Abutilon theophrasti, 504 h, 80 g/ha, scored visually after 3 weeks vs untreated controls (100% = plants have died, 0% = like control plants)
Outline: as §1

[21] = test system: PHBPU; assay: Post-emergence herbicidal action against PHBPU; type: in vivo, Pharbitis purpurea; conditions: Ipomoea purpurea, 504 h, dosage 20 g/ha
Outline: as §2

[22] = test system: SETVI; assay: Post-emergence herbicidal action against SETVI; type: in vivo, Setaria viridis; conditions: Setaria viridis, 504 h
Outline: as §2

`CCNC(=O)c1c(C(F)F)ccc(C(=O)Nc2nnnn2C)c1Br` [Example 1-226] was tested, and the pest or weed control at 20 g/ha ([1]; dosage 20 g/ha) was 100%, the pest or weed control at 80 g/ha ([1]; dosage 80 g/ha) was 100% and the pest or weed control at 20 g/ha ([2]; 20 g/ha) was 100%. For the same molecule, the pest or weed control at 80 g/ha ([2]; 80 g/ha) was 100%, the pest or weed control at 20 g/ha [3] was 90% and the pest or weed control at 5 g/ha ([4]; dosage 5 g/ha) was 90%. It also gave a pest or weed control at 20 g/ha ([4]; dosage 20 g/ha) of 90%, a pest or weed control at 80 g/ha ([5]; 80 g/ha) of 90% and a pest or weed control at 20 g/ha ([5]; 20 g/ha, scored visually after 3 weeks, 100% = plants have died, 0% = like control plants) of 80%. It also gave a pest or weed control at 20 g/ha ([6]; 20 g/ha) of 80%, a pest or weed control at 80 g/ha ([6]; 80 g/ha) of 100% and a pest or weed control at 80 g/ha [7] of 90%. It also gave a pest or weed control at 80 g/ha [8] of 90%, a pest or weed control at 5 g/ha ([9]; 5 g/ha) of 100% and a pest or weed control at 20 g/ha ([9]; 20 g/ha) of 100%. The pest or weed control at 5 g/ha ([10]; 5 g/ha) was 90%, the pest or weed control at 20 g/ha ([10]; 20 g/ha) was 100% and the pest or weed control at 20 g/ha [11] was 100%. It also gave a pest or weed control at 5 g/ha ([12]; dosage 5 g/ha) of 100%, a pest or weed control at 20 g/ha ([12]; dosage 20 g/ha) of 100% and a pest or weed control at 20 g/ha [13] of 80%. The pest or weed control at 5 g/ha ([14]; dosage 5 g/ha) was 80%, the pest or weed control at 20 g/ha ([14]; dosage 20 g/ha) was 100% and the pest or weed control at 80 g/ha [15] was 90%. For the same molecule, the pest or weed control at 20 g/ha ([16]; dosage 20 g/ha) was 100%, the pest or weed control at 80 g/ha ([16]; dosage 80 g/ha) was 100% and the pest or weed control at 20 g/ha [17] was 80%. The pest or weed control at 20 g/ha ([18]; dosage 20 g/ha) was 80%, the pest or weed control at 80 g/ha ([18]; dosage 80 g/ha) was 100% and the pest or weed control at 80 g/ha [19] was 90%. It also gave a pest or weed control at 80 g/ha [20] of 90%, a pest or weed control at 20 g/ha [21] of 80% and a pest or weed control at 5 g/ha ([22]; dosage 5 g/ha) of 100%. For the same molecule, the pest or weed control at 20 g/ha ([22]; dosage 20 g/ha) was 100%.
